Measurements published in patent US20230250096A1, “SUBSTITUTED PHENYL-1H-PYRROLO[2,3-c] PYRIDINE DERIVATIVES” (Janssen Pharmaceutica NV, priority 2021, published 2023).
Read-outs that look alike come from different tables or passages of the source.

How the values were obtained:
Type in all cases: cell-based, human
[1] = test system: MOLM14 cells; assay: Proliferation assay (spheroid confluence, 8 days), MOLM14; settings: read-out: spheroid assay_MOLM14 IC50
Outline: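 Cells grown as spheroids in ultra-low attachment round-bottom wells (200 MOLM14 or OCI-AML3, 300 KO-52 per well) with compound dilutions at 0.3% DMSO, 8 days, 37° C. Confluence from live-cell imaging at day 8; % effect normalized to DMSO and high-dose reference/staurosporin, absolute IC50 from variable-slope fit.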

[2] = test system: KO-52 cells; assay: Proliferation assay (spheroid confluence, 8 days), KO-52 control cell line; settings: Homo sapiens, read-out: spheroid assay_KO-52 IC50
Description: The anti-proliferative effect of menin/MLL protein/protein interaction inhibitor test compounds was assessed in human leukemia cell lines. The cell line MOLM14 harbors a MLL translocation and expresses the MLL fusion protein MLL-AF9, respectively, as well as the wildtype protein from the second allele. OCI-AML3 cells that carry the NPM1c gene mutation were also tested. […] KO-52 was used as a control cell line containing two MLL (KMT2A) wildtype alleles in order to exclude compounds that display general cytotoxic effects.
MOLM14 cells were cultured in RPMI-1640 (Sigma Aldrich) supplemented with 10% heat-inactivated fetal bovine serum (HyClone), 2 mM L-glutamine (Sigma Aldrich) and 50 μg/ml gentamycin (Gibco). KO-52 and OCI-AML3 cell lines were propagated in alpha-MEM (Sigma Aldrich) supplemented with 20% heat-inactivated fetal bovine serum (HyClone), 2 mM L-glutamine (Sigma Aldrich) and 50 μg/ml gentamycin (Gibco).
In order to assess the anti-proliferative effects, 200 MOLM14 cells, 200 OCI-AML3 cells or 300 KO-52 cells were seeded in 200 μl media per well in 96-well round bottom, ultra-low attachment plates (Costar, catalogue number 7007). Cell seeding numbers were chosen based on growth curves to ensure linear growth throughout the experiment. Test compounds were added at different concentrations and the DMSO content was normalized to 0.3%. Cells were incubated for 8 days at 37° C. and 5% CO2. Spheroid like growth was measured in real-time by live-cell imaging (IncuCyteZOOM, Essenbio, 4×objective) acquiring images at day 8. Confluence (%) as a measure of spheroid size was determined using an integrated analysis tool.
In order to determine the effect of the test compounds over time, the confluence in each well as a measure of spheroid size, was calculated. Confluence of the highest dose of a reference compound was used as baseline for the LC (Low control) and the confluence of DMSO treated cells was used as 0% cytotoxicity (High Control, HC).
Absolute IC50 values were calculated as percent change in confluence as follows:
LC=Low Control: cells treated with e.g. 1 μM of the cytotoxic agent staurosporin, or e.g. cells treated with a high concentration of an alternative reference compound
HC=High Control: Mean confluence (%) (DMSO treated cells)
% Effect=100−(100*(Sample−LC)/(HC−LC))
GraphPad Prism (version 7.00) was used to calculate the IC50. Dose-response equation was used for the plot of % Effect vs Log10 compound concentration with a variable slope and fixing the maximum to 100% and the minimum to 0%.

[3] = test system: MEIS1 mRNA expression; assay: MEIS1 mRNA expression assay (Quantigene Singleplex) in MOLM14 cells; settings: 48 hours incubation
Outline: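 MOLM14 cells, 3,750/well, exposed to increasing compound concentrations for 48 h. MEIS1 mRNA measured by QuantiGene Singleplex branched-DNA hybridization (lysis 45 min, hybridization 18–22 h, both 55 °C), normalized to RPL28. IC50 fitted to background-corrected fold change versus DMSO.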

Structure (SMILES) | IC50 ([1]; Homo sapiens, MOLM-14, MOLM14) | IC50 [2] | IC50 ([3]; Homo sapiens, MOLM-14, 48 h) | IC50 [3] | IC50 ([1]; MOLM14)
Cc1cncc2c1c(CC1CCN(CC3CCN(C(=O)[C@@H](C)O)CC3)C1)cn2-c1ccc(F)cc1C(=O)N(C)C(C)C (single isomer, unassigned) [Compound 85] | 12 nM | 2200 nM | 22 nM | – | –
Cc1cncc2c1c(CC1CCN(CC3CCN(C(=O)[C@H](C)O)CC3)C1)cn2-c1ccc(F)cc1C(=O)N(C)C(C)C (single isomer, unassigned) [Compound 86] | 10 nM | 1300 nM | 21 nM | – | –
CC(=O)N1CCC(C(C)N2CCC(Cc3cn(-c4ccc(F)cc4C(=O)N(C)C(C)C)c4cncc(C)c34)C2)CC1 (single isomer, unassigned) [Compound 116a] | 8 nM | 3800 nM | 5 nM | – | –
Cc1cncc2c1c(CC1CCN(CC3CCN(C(=O)C(C)(C)O)CC3)C1)cn2-c1ccc(F)cc1C(=O)N(C)C(C)C (single isomer, unassigned) [Compound 125] | 11 nM | 7000 nM | 16 nM | – | –
CN=[S@](=O)(c1cc(F)ccc1-n1cc(C[C@@H]2CCN(CC3CCN(C(C)=O)CC3)C2)c2c(C)cncc21)C(C)C (single isomer, unassigned) [Compound 128a] | 676 nM | 7700 nM | 258 nM | – | –
COCC(=O)N1CCC(CN2CC[C@@H](Cc3cn(-c4ccc(F)cc4C(=O)N(C)C(C)C)c4cncc(C)c34)C2)CC1 (single isomer, unassigned) [Compound 136] | 28 nM | 1400 nM | 71 nM | – | –
CC(=O)N1CCC(N2CC[C@H](Cc3cn(-c4ccc(F)cc4C(=O)N(C)C(C)C)c4cncc(C)c34)C2)C(C)C1 (single isomer, unassigned) [Compound 137a] | 15 nM | 1100 nM | – | 14 nM | –
CNC(=O)[C@H]1CC[C@H](CN2CC([C@H](C)c3cn(-c4ccc(F)cc4C(=O)N(C)C(C)C)c4cncc(C)c34)C2)CC1 (single isomer, unassigned) [Compound 164b] | 10 nM | 10400 nM | 17 nM | – | –
COC[C@H](C1CCCCO1)N1CC[C@@H](Cc2cn(-c3ccc(F)cc3C(=O)N(C)C(C)C)c3cncc(C)c23)C1 (single isomer, unassigned) [Compound 165b] | 4 nM | 1900 nM | 38 nM | – | –
Cc1cncc2c1c(C[C@@H]1CCN([C@H](C)C3CCOCC3)C1)cn2-c1ccc(F)cc1[S@](=N)(=O)C(C)C (single isomer, unassigned) [Compound 180a] | 39 nM | 7200 nM | 117 nM | – | –
Cc1cncc2c1c(C[C@H]1CCN([C@H](C)C3CCOCC3)C1)cn2-c1ccc(F)cc1[S@](=N)(=O)C(C)C (single isomer, unassigned) [Compound 181a] | 44 nM | 4100 nM | 111 nM | – | –
Cc1cncc2c1c(CC1CCN(CC3CCC(=O)N(C)CC3)C1)cn2-c1ccc(F)cc1C(=O)N(C)C(C)C (single isomer, unassigned) [Compound 184a] | – | > 15000 nM | – | 23 nM | 13 nM
Cc1cncc2c1c(C[C@@H]1CCN([C@@H](CO)C3CCCOC3)C1)cn2-c1ccc(F)cc1C(=O)N(C)C(C)C (single isomer, unassigned) [Compound 198a] | 10 nM | – | 13 nM | – | –
Cc1cncc2c1c(C[C@@H]1CCN([C@H](CO)C3CCCOC3)C1)cn2-c1ccc(F)cc1C(=O)N(C)C(C)C (single isomer, unassigned) [Compound 198b] | – | > 15000 nM | 107 nM | – | –
CC(=O)NC1CCC(N2CC[C@@H](Cc3cn(-c4ccc(F)cc4C(=O)N(C)C(C)C)c4cncc(C)c34)C2)CC1 (some centres unmarked) [Compound 201] | – | – | – | 47 nM | 31 nM
Cc1cncc2c1c(C[C@@H]1CCN(CC3CCN(C(=O)C(C)C)CC3)C1)cn2-c1ccc(F)cc1C(=O)N1CCC[C@H]1CO [Compound 328] | 50 nM | – | ~154 nM | – | –
